Experimental findings from patent US20110230476A1, “PI3 KINASE INHIBITORS AND USES THEREOF” (AVILA THERAPEUTICS, INC., priority 2009, published 2011) are described below.

One experiment relates to Phospho-Akt(Ser473). Nature of the experiment: Dose response in SKOV3 cells as determined by in-cell Western. The experiment is classed as cell-based. Conditions: Homo sapiens, SK-OV-3; SKOV3 cells, 1 hr; read-out: pAKT Inhibition in cell Western. As to the method:
Dose Response in SKOV3 Cells as Determined by in-Cell Western
Twenty four hours later the media was removed and replaced with 100 ul media containing test compound or control compound and cells were returned to the incubator for 1 hr. At the end of the hour, the media was removed and the cells were washed once with PBS, then fixed for 20 minutes at room temperature in 4% formaldehyde in PBS. The formaldehyde was removed and cells were washed 5 times for 5 minutes with 100 ul of Permeabilization Buffer (PBS+0.1% Triton X-100) at room temperature with gentle shaking. The last wash was removed and replaced with 150 ul of Odyssey Blocking Buffer (Li-Cor, Lincoln, Nebr.) and incubated for 90 minutes at room temperature with gentle shaking.
The Blocking Buffer was then replaced with 50 ul of primary antibody mix (rabbit anti-Phospho-Akt(Ser473) at 1:100 (Cell Signaling Technology, Boston, Mass.) and mouse anti-tubulin at 1:5000 (Sigma Aldrich, St. Louis, Mo.) diluted in Odyssey Blocking Buffer) and incubated overnight at room temperature with gentle shaking.
The next morning, the antibody mix was removed and the wells were washed 5 times for 5 minutes with PBS+0.1% Tween-20. The last wash was replaced with 50 ul of secondary antibody mix (goat anti-rabbit-IRDye-680 and goat anti-mouse-IRDye-800 (Li-Cor), both diluted 1:1000 in Odyssey Blocking Buffer+0.2% Tween-20) and incubated for 1 hour at room temperature with gentle shaking. The antibody mix was removed and the wells were washed 5 times for 5 minutes in PBS+0.1% Tween-20, then 1 time with ddH2O.
The plates were scanned on an Odyssey machine (Li-Cor) with a 3 mm focus offset at an intensity of 8 in both channels and the data was analyzed using the Odyssey software.

In the next experiment the target is T1, PI3Kα (p110α/p85α) (Homo sapiens, UniProt P42336).
T1 construct: purchased BPS Bioscience (San Diego, Calif.) or Millipore (Billerica, Mass.)
Nature of the experiment: HTRF assay, potency against active PI3Kα. Conditions: HTRF; [ATP]=50 μM, [di-C8-PIP2]=10 μM; 30 min pre-incubation; read-out: PI3Kα Inhibition. The experiment is classed as biochemical. Summed up: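 Active p110/p85α lipid kinase reactions were started with ATP and run 30-60 minutes at 25 °C, then stopped and developed with HTRF detection mix. HTRF ratio converted to % inhibition against ±enzyme controls; IC50 from log[inhibitor] vs response, variable slope.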

T1 sequence (P42336 whole entry): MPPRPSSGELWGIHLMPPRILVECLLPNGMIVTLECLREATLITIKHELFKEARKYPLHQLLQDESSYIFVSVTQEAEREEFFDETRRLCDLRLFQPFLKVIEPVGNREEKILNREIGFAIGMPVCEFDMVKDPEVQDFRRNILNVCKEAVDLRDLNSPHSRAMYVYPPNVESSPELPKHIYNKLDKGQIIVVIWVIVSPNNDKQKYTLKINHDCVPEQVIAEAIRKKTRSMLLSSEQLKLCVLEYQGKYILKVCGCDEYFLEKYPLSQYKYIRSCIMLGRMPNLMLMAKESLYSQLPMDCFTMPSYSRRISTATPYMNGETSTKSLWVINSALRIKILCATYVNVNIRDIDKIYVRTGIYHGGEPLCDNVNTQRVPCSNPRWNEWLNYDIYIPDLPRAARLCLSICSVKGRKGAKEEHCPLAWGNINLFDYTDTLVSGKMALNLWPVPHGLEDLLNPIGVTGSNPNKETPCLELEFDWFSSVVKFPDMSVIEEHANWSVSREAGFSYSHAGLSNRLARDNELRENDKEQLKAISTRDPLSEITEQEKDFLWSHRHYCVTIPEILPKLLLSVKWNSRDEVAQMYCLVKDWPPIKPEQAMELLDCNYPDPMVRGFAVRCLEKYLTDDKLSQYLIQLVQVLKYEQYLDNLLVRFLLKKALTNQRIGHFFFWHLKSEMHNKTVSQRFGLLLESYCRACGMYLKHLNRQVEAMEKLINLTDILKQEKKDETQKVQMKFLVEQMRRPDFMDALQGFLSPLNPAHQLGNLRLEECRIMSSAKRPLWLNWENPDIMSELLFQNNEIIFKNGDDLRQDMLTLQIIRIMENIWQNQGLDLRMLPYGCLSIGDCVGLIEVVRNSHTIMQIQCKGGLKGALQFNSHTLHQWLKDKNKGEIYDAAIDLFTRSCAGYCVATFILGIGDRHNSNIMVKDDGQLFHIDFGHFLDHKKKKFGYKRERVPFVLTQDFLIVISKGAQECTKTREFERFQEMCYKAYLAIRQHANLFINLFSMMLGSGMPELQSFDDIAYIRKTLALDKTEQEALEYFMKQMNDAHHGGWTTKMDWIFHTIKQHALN
T1 sequence (P27986 whole entry partner): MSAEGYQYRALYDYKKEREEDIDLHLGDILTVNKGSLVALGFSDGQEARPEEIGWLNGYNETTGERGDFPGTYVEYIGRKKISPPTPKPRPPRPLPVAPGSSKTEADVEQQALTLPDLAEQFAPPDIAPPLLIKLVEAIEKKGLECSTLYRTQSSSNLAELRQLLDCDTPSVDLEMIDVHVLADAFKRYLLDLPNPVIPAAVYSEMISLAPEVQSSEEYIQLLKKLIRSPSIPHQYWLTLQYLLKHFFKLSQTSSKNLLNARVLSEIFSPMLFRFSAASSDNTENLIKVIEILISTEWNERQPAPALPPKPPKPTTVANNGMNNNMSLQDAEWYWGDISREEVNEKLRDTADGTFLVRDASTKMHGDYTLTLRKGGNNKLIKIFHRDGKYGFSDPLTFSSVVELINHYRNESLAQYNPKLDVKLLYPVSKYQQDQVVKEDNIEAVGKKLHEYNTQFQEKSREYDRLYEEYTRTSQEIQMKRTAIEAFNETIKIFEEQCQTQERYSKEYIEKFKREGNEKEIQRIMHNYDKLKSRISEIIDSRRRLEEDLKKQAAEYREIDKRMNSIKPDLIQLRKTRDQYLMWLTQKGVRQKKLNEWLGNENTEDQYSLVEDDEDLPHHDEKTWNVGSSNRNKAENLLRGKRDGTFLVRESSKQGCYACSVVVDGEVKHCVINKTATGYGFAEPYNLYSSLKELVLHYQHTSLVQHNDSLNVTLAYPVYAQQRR

Regarding `CC(C)=CC(=O)c1ccc(C(=O)N2CC=C(c3cc(-c4cnc(N)nc4)nc(N4CCOCC4)c3)CC2)cc1` [XII-50, 1-(4-(4-(2-(2-aminopyrimidin-5-yl)-6-morpholinopyridin-4-yl)-1,2,3,6-tetrahydropyridine-1-carbonyl)phenyl)-3-methylbut-2-en-1-one], in the experiment with Phospho-Akt(Ser473), the EC50 lay in the range of 100 to 1000 nM. For the same molecule, on PI3Kα (p110α/p85α), the IC50 is 100 to 1000 nM.

With `O=C(/C=C/c1cccnc1)CCC(=O)N1CCN(Cc2cc3nc(-c4cccc5[nH]ncc45)nc(N4CCOCC4)c3s2)CC1` [II-a-132, (E)-1-(4-((2-(1H-indazol-4-yl)-4-morpholinothieno[3,2-d]pyrimidin-6-yl)methyl)piperazin-1-yl)-6-(pyridin-3-yl)hex-5-ene-1,4-dione], in the experiment with Phospho-Akt(Ser473), the EC50 lay in the range of 10 to 100 nM. Also, the IC50 on PI3Kα (p110α/p85α) fell in the range of 100 to 1000 nM. In the case of `COc1c(OCCOCCNS(C)(=O)=O)ccc2c1N=C(NC(=O)c1cccnc1)N1CCN=C21` [IX-ref], the EC50 in the experiment on Phospho-Akt(Ser473) was in the range of 10 to 100 nM. For `CC(C)=CC(=O)CCC(=O)NCc1ccc(-c2cc3nc(-c4cccc(O)c4)nc(N4CCOCC4)c3s2)cc1` [II-a-122, N-(4-(2-(3-hydroxyphenyl)-4-morpholinothieno[3,2-d]pyrimidin-6-yl)benzyl)-6-methyl-4-oxohept-5-enamide], the EC50 with Phospho-Akt(Ser473) is 100 to 1000 nM. Also, at PI3Kα (p110α/p85α), the IC50 fell in the range of 10 to 100 nM. On the same counts, the results for `C=CC(=O)Nc1ccc(C#Cc2cc(-c3cnc(N)nc3)nc(N3CCOCC3)c2)cc1` [XII-4, N-(4-((2-(2-aminopyrimidin-5-yl)-6-morpholinopyridin-4-yl)ethynyl)phenyl)acrylamide] are 10 to 100 nM and 10 to 100 nM. On the same counts, the results for `C=CC(=O)Nc1cccc(C(=O)N2CC=C(c3cc(-c4cnc(N)nc4)nc(N4CCOCC4)c3)CC2)c1` [XII-47, N-(3-(4-(2-(2-aminopyrimidin-5-yl)-6-morpholinopyridin-4-yl)-1,2,3,6-tetrahydropyridine-1-carbonyl)phenyl)acrylamide] are 100 to 1000 nM and 100 to 1000 nM. The matching figures for `Cc1ccc(/C=C/C(=O)CCC(=O)N2CCN(Cc3cc4nc(-c5cccc6[nH]ncc56)nc(N5CCOCC5)c4s3)CC2)cc1` [II-a-139, (E)-1-(4-((2-(1H-indazol-4-yl)-4-morpholinothieno[3,2-d]pyrimidin-6-yl)methyl)piperazin-1-yl)-6-p-tolylhex-5-ene-1,4-dione]: 100 to 1000 nM and 10 to 100 nM. Regarding `CNC(=O)Nc1ccc(-c2nc(N3CCOCC3)c3cnn(C4CCN(C(=O)OC)CC4)c3n2)cc1` [VII-ref], the EC50 in the experiment with Phospho-Akt(Ser473) was 10 to 100 nM. Take `C=CC(=O)Nc1ccc(CCNC(=O)c2cc3nc(-c4cnc(N)nc4)cc(N4CCOCC4)c3s2)cc1` [II-g-1, N-(4-acrylamidophenethyl)-5-(2-aminopyrimidin-5-yl)-7-morpholinothieno[3,2-b]pyridine-2-carboxamide]: the EC50 in the experiment on Phospho-Akt(Ser473) is 10 to 100 nM. Further, on PI3Kα (p110α/p85α), the IC50 lay within 100 to 1000 nM. On the same counts, the results for `C/C=C/C(=O)CCC(=O)N1CCC(n2ncc3c(N4CCOCC4)nc(-c4ccc(NC(=O)NC)cc4)nc32)CC1` [VII-7, (E)-1-methyl-3-(4-(4-morpholino-1-(1-(4-oxohept-5-enoyl)piperidin-4-yl)-1H-pyrazolo[3,4-d]pyrimidin-6-yl)phenyl)urea] are 100 to 1000 nM and 100 to 1000 nM. The matching figures for `O=C(/C=C/c1ccccc1)CCCC(=O)N1CC=C(c2cc3nc(-c4cccc5[nH]ncc45)nc(N4CCOCC4)c3s2)CC1` [II-a-137, (E)-1-(4-(2-(1H-indazol-4-yl)-4-morpholinothieno[3,2-d]pyrimidin-6-yl)-5,6-dihydropyridin-1(2H)-yl)-7-phenylhept-6-ene-1,5-dione]: 10 to 100 nM and 10 to 100 nM. The matching figures for `CCCC(=O)CCC(=O)N1CCN(Cc2cc3nc(-c4cccc5[nH]ncc45)nc(N4CCOCC4)c3s2)CC1` [II^R-a-36, 1-(4-((2-(1H-indazol-4-yl)-4-morpholinothieno[3,2-d]pyrimidin-6-yl)methyl)piperazin-1-yl)heptane-1,4-dione]: 100 to 1000 nM and greater than 1000 nM. Consider `Cn1cncc1/C=C/C(=O)CCC(=O)N1CCN(Cc2cc3nc(-c4cccc5[nH]ncc45)nc(N4CCOCC4)c3s2)CC1` [II-a-130, (E)-1-(4-((2-(1H-indazol-4-yl)-4-morpholinothieno[3,2-d]pyrimidin-6-yl)methyl)piperazin-1-yl)-6-(1-methyl-1H-imidazol-5-yl)hex-5-ene-1,4-dione], for which the EC50 with Phospho-Akt(Ser473) was in the range of 10 to 100 nM. For the same molecule, the IC50 on PI3Kα (p110α/p85α) fell in the range of 100 to 1000 nM. On the same counts, the results for `O=C(/C=C/c1ccccn1)CCC(=O)N1CCN(Cc2cc3nc(-c4cccc5[nH]ncc45)nc(N4CCOCC4)c3s2)CC1` [II-a-133, (E)-1-(4-((2-(1H-indazol-4-yl)-4-morpholinothieno[3,2-d]pyrimidin-6-yl)methyl)piperazin-1-yl)-6-(pyridin-2-yl)hex-5-ene-1,4-dione] are 10 to 100 nM and 100 to 1000 nM. As for `O=C(/C=C/c1ccccc1F)CCC(=O)N1CCN(Cc2cc3nc(-c4cccc5[nH]ncc45)nc(N4CCOCC4)c3s2)CC1` [II-a-140, (E)-1-(4-((2-(1H-indazol-4-yl)-4-morpholinothieno[3,2-d]pyrimidin-6-yl)methyl)piperazin-1-yl)-6-(2-fluorophenyl)hex-5-ene-1,4-dione], the EC50 in the experiment on Phospho-Akt(Ser473) lay in the range of 100 to 1000 nM. The IC50 on PI3Kα (p110α/p85α) is 10 to 100 nM.

Consider `C/C=C/C(=O)CCCC(=O)Nc1ccc(S(=O)(=O)Nc2cc(-c3ccc4nccc(-c5ccncc5)c4c3)cnc2OC)cc1` [X-1, (E)-N-(4-(N-(2-methoxy-5-(4-(pyridin-4-yl)quinolin-6-yl)pyridin-3-yl)sulfamoyl)phenyl)-5-oxooct-6-enamide], for which the EC50 with Phospho-Akt(Ser473) is no more than 10 nM. In addition, the IC50 on PI3Kα (p110α/p85α) lay in the range of 100 to 1000 nM. On the same counts, the results for `C/C=C/C(=O)CCC(=O)N1CCC(O)(CCc2cc3nc(-c4cccc(O)c4)nc(N4CCOCC4)c3s2)CC1` [II-a-123, (E)-1-(4-hydroxy-4-(2-(2-(3-hydroxyphenyl)-4-morpholinothieno[3,2-d]pyrimidin-6-yl)ethyl)piperidin-1-yl)hept-5-ene-1,4-dione] are 10 to 100 nM and less than 10 nM. The matching figures for `O=C(/C=C/c1cccs1)CCC(=O)N1CCN(Cc2cc3nc(-c4cccc5[nH]ncc45)nc(N4CCOCC4)c3s2)CC1` [II-a-126, (E)-1-(4-((2-(1H-indazol-4-yl)-4-morpholinothieno[3,2-d]pyrimidin-6-yl)methyl)piperazin-1-yl)-6-(thiophen-2-yl)hex-5-ene-1,4-dione]: no more than 10 nM and 100 to 1000 nM. The matching figures for `C=CC(=O)Nc1ccc(OCc2cc(-c3cnc(N)nc3)nc(N3CCOCC3)c2)cc1` [XII-5, N-(4-((2-(2-aminopyrimidin-5-yl)-6-morpholinopyridin-4-yl)methoxy)phenyl)acrylamide]: 10 to 100 nM and 100 to 1000 nM. On to `C=CC(=O)Nc1ccc(C(=O)N(C)Cc2cc3nc(-c4cnc(N)nc4)nc(N4CCOCC4)c3s2)cc1` [II-a-175, 4-acrylamido-N-((2-(2-aminopyrimidin-5-yl)-4-morpholinothieno[3,2-d]pyrimidin-6-yl)methyl)-N-methylbenzamide], for which the EC50 in the experiment on Phospho-Akt(Ser473) is no more than 10 nM. Further, at PI3Kα (p110α/p85α), the IC50 lay in the range of 10 to 100 nM.

In the case of `COc1ccc(-c2nn(C3CCN(C(=O)CCC(=O)/C=C/c4ccccc4)CC3)c3ncnc(N)c23)cc1OC` [XI-3, (E)-1-(4-(4-amino-3-(3,4-dimethoxyphenyl)-1H-pyrazolo[3,4-d]pyrimidin-1-yl)piperidin-1-yl)-6-phenylhex-5-ene-1,4-dione], the EC50 in the experiment on Phospho-Akt(Ser473) was no less than 1000 nM. Further, at PI3Kα (p110α/p85α), the IC50 fell in the range of 100 to 1000 nM. On to `Nc1ncnc2c1c(-c1cnc3[nH]ccc3c1)nn2C1CCCC1` [XI-ref], for which, in the experiment with Phospho-Akt(Ser473), the EC50 was 10 to 100 nM. On to `COc1ncc(-c2ccc3nccc(-c4ccncc4)c3c2)cc1NS(=O)(=O)c1ccc(F)cc1F` [X-ref], for which, in the experiment with Phospho-Akt(Ser473), the EC50 is no more than 10 nM.

With `C/C=C/C(=O)CCC(=O)N1Cc2ccc(-c3cc4nc(-c5cccc(O)c5)nc(N5CCOCC5)c4s3)cc2C1` [II-a-68, (E)-1-(5-(2-(3-hydroxyphenyl)-4-morpholinothieno[3,2-d]pyrimidin-6-yl)isoindolin-2-yl)hept-5-ene-1,4-dione], the IC50 at PI3Kα (p110α/p85α) is less than 10 nM. Same read-out and setting: the figure for `COc1c(OCCNC(=O)c2ccc(NC(=O)/C=C/c3ncc[nH]3)cc2)ccc2c1N=C(NC(=O)c1cccnc1)N1CCN=C21` [IX-6, (E)-N-(8-(2-(4-(3-(1H-imidazol-2-yl)acrylamido)benzamido)ethoxy)-7-methoxy-2,3-dihydroimidazo[1,2-c]quinazolin-5-yl)nicotinamide] is 10 to 100 nM.
